Patent US20130254944A1, “Herbicide Tolerant Soybeans and Methods of Use” (PIONEER HI BRED INTERNATIONAL INC, priority 2012, published 2013)

Assays:
Type in all cases: in vivo
[1] = tested on: wild type soybean; test: Greenhouse postemergence test of ALS-inhibiting herbicides, wild type soybean
Method: (§1) Soybean lines having wild type als1 & 2 genes, the Als1 mutation, the Als2 mutation, or both the Als1 and Als2 mutations were evaluated for their response to various herbicides. Two seeds from each line were planted into 4-inch pots containing Redi-Earth potting mix (Sun Gro Horticulture Canada Ltd. 52130 RR65, Seba Beach, Alberta TOE 2B0), with two replications planted for each treatment. Pots were placed in flats at 15 pots/flat, and the resulting plants were grown in a greenhouse environment supplemented with lighting (16 hr photoperiod) for the duration of the test. Selected herbicides representing the mode of action that inhibits the acetolactate synthase enzyme, also known as the acetohydroxyacid synthase enzyme, were applied postemergence to soybean when soybean plants were at the V2 growth stage, which is the stage at which the first two trifoliolate leaves were expanded.
(§2) Eleven active ingredients representing the five chemical families with herbicidal activity on the acetolactate synthase enzyme were tested. These herbicides can cause a phytotoxic response in wild type soybean plants. The five chemical families tested were sulfonylaminocarbonyltriazolinone (also known as triazolinone), imidazolinone, sulfonylurea, pyrimidinylthiobenzoate, and triazolopyrimidine. Application rates ranged from 0.5 times to eight times the currently labeled application rate for each active ingredient with spray application volume at 30 gallons/acre. The application rates tested were 0.5×, 1×, 2×, 4× and 8× the label rate for each herbicide. Herbicidal active ingredients were applied as formulated materials dispersed in water containing 0.25% nonionic surfactant (Trend® 90).
(§3) The test was evaluated by visually scoring plant phenotype 14 days after the herbicides were applied. Controls consisted of soybean plants of the same variety that received no herbicide treatments for each of all the varieties tested. Soybean response was recorded on a zero to 100 visual scale in which zero is no phytotoxic response and 100 is plant death fourteen days after the herbicides were applied. Soybean response (percent phytotoxicity) to postemergence applications of herbicides inhibiting the acetolactate synthase enzyme test results are shown in Table 1.

[2] = tested on: soybean having the Als1 mutation; test: Greenhouse postemergence test of ALS-inhibiting herbicides, soybean with Als1 mutation; settings: for Avg response (% phytotoxicity), Trait Als1: Table 2; for EC10, Als1: rate of herbicide estimated to cause 10% phytotoxic response, loglogistic fit
Method: as §1, §2, §3
(§4) Results in Table 1 were evaluated using the isobole method for analyzing interactions. […] Here the biologically active agents that are being assessed for interaction (synergy) are gene mutations in soybean. The effectiveness of the genes in providing improved tolerance to ALS-inhibiting herbicides was assessed by applying increasing doses of herbicides to each soybean line with its mutation(s).
(§5) An isobole reduces a dose response surface in three dimensional space to a two dimensional plot by fixing a defined response level (e.g., 50% response). The isobole plot is a graph in the Cartesian plane with a straight line connecting the isoeffective rates of the individual components of the combination. This straight line represents expected responses for zero interactive combinations. The isoeffective rate used to create the isobole is often the EC50, the rate estimated to elicit 50% response, but other ECx values can be used. Since the isobole method is based on the potency of the components of the combination, an experimental design testing a range of rates expected to elicit the full range of responses (e.g., 0 to maximum response) is best. (Ferry et al. (2005) 2005 Conference on Applied Statistics in Agriculture Proceedings pp 33-50, Manhattan, Kans., Kansas State Univ.; Green and Streibig (1993) Herbicide Mixtures, pp 117-134 in Herbicide Bioassays, Streibig and Hudsk Eds, CRC, Boca Raton, Fla.).
(§6) Loglogistic dose response curves were fit to percent phytotoxicity response data using log 10 of dose (McCullagh and Nelder (1989) Generalized Linear Models, Chapman & Hall, London). Curves were fit using the logit link with normal errors. […]

[3] = tested on: soybean having the Als2 mutation; test: Greenhouse postemergence test of ALS-inhibiting herbicides, soybean with Als2 mutation; settings: for Avg response (% phytotoxicity), Trait Als2: Table 2; for EC10, Als2: rate of herbicide estimated to cause 10% phytotoxic response, loglogistic fit
Method: as §1, §2, §3, §4, §5, §6

[4] = tested on: soybean having both the Als1 and Als2 mutations; test: Greenhouse postemergence test of ALS-inhibiting herbicides and isobole analysis, soybean with Als1 and Als2 mutations; settings: for Avg response (% phytotoxicity), Trait Als1 + Als2: Table 2; for EC10, Als1 + Als2: rate of herbicide estimated to cause 10% phytotoxic response, loglogistic fit
Method: as §1, §2, §3, §4, §5, §6

[5] = 35 g ai/ha postemergence at V2, scored 14 days after application
[6] = 70 g ai/ha postemergence at V2, scored 14 days after application
[7] = 140 g ai/ha postemergence at V2, scored 14 days after application
[8] = 280 g ai/ha postemergence at V2, scored 14 days after application
[9] = 560 g ai/ha postemergence at V2, scored 14 days after application
[10] = 17.5 g ai/ha postemergence at V2, scored 14 days after application

Structure (SMILES) | Soybean response (percent phytotoxicity), Wild type [1, 5] | Soybean response (percent phytotoxicity), Wild type [1, 6] | Soybean response (percent phytotoxicity), Wild type [1, 7] | Soybean response (percent phytotoxicity), Wild type [1, 8] | Soybean response (percent phytotoxicity), Als1 [2, 5] | Avg response (% phytotoxicity), Trait Als1 ([2]; 35 g ai/ha) | Soybean response (percent phytotoxicity), Als1 [2, 6] | Avg response (% phytotoxicity), Trait Als1 ([2]; 70 g ai/ha) | Soybean response (percent phytotoxicity), Als1 [2, 7] | Avg response (% phytotoxicity), Trait Als1 ([2]; 140 g ai/ha) | Soybean response (percent phytotoxicity), Als1 [2, 8] | Avg response (% phytotoxicity), Trait Als1 ([2]; 280 g ai/ha) | EC10, Als1 [2] | Soybean response (percent phytotoxicity), Als2 [3, 5] | Avg response (% phytotoxicity), Trait Als2 ([3]; 35 g ai/ha) | Soybean response (percent phytotoxicity), Als2 [3, 6] | Avg response (% phytotoxicity), Trait Als2 ([3]; 70 g ai/ha) | Soybean response (percent phytotoxicity), Als2 [3, 7] | Avg response (% phytotoxicity), Trait Als2 ([3]; 140 g ai/ha) | Soybean response (percent phytotoxicity), Als2 [3, 8] | further results
CCc1cnc(C2=NC(C)(C(C)C)C(=O)N2)c(C(=O)O)c1 (stereo not shown) [Imazethapyr] | 0% | 0% | 0% | 15% | 0% | 0% | 0% | 0% | 0% | 0% | 10% | 10% | 333.22 g ai/ha | 0% | 0% | 0% | 0% | 0% | 0% | 0% | Soybean response (percent phytotoxicity), Wild type [1, 9]: 20%; Soybean response (percent phytotoxicity), Als1 [2, 9]: 20%; Avg response (% phytotoxicity), Trait Als1 ([2]; 560 g ai/ha): 20%; Avg response (% phytotoxicity), Trait Als2 ([3]; 280 g ai/ha): 0%; Soybean response (percent phytotoxicity), Als2 [3, 9]: 5%; Avg response (% phytotoxicity), Trait Als2 ([3]; 560 g ai/ha): 10%; EC10, Als2 [3]: 560.00 g ai/ha; Soybean response (percent phytotoxicity), Als1 + Als2 [4, 5]: 0%; Avg response (% phytotoxicity), Trait Als1 + Als2 ([4]; 35 g ai/ha): 0%; Soybean response (percent phytotoxicity), Als1 + Als2 [4, 6]: 0%; Avg response (% phytotoxicity), Trait Als1 + Als2 ([4]; 70 g ai/ha): 0%; Soybean response (percent phytotoxicity), Als1 + Als2 [4, 7]: 0%; Avg response (% phytotoxicity), Trait Als1 + Als2 ([4]; 140 g ai/ha): 0%; Soybean response (percent phytotoxicity), Als1 + Als2 [4, 8]: 5%; Avg response (% phytotoxicity), Trait Als1 + Als2 ([4]; 280 g ai/ha): 5%; Soybean response (percent phytotoxicity), Als1 + Als2 [4, 9]: 10%; Avg response (% phytotoxicity), Trait Als1 + Als2 ([4]; 560 g ai/ha): 10%; EC10, Als1 + Als2 [4]: 549.93 g ai/ha
COc1cc(OC)nc(NC(=O)NS(=O)(=O)c2ncccc2C(=O)N(C)C)n1 [Nicosulfuron] | 10% | 20% | 45% | 65% | 0% | 0% | 0% | 0% | 5% | 5% | 25% | 25% | 187.47 g ai/ha | 0% | 0% | 0% | 0% | 20% | 20% | 35% | Soybean response (percent phytotoxicity), Wild type [1, 10]: 0%; Soybean response (percent phytotoxicity), Als1 [2, 10]: 0%; Avg response (% phytotoxicity), Trait Als1 ([2]; 17.5 g ai/ha): 0%; Soybean response (percent phytotoxicity), Als2 [3, 10]: 0%; Avg response (% phytotoxicity), Trait Als2 ([3]; 17.5 g ai/ha): 0%; Avg response (% phytotoxicity), Trait Als2 ([3]; 280 g ai/ha): 35%; EC10, Als2 [3]: 105.60 g ai/ha; Soybean response (percent phytotoxicity), Als1 + Als2 [4, 10]: 0%; Avg response (% phytotoxicity), Trait Als1 + Als2 ([4]; 17.5 g ai/ha): 0%; Soybean response (percent phytotoxicity), Als1 + Als2 [4, 5]: 0%; Avg response (% phytotoxicity), Trait Als1 + Als2 ([4]; 35 g ai/ha): 0%; Soybean response (percent phytotoxicity), Als1 + Als2 [4, 6]: 0%; Avg response (% phytotoxicity), Trait Als1 + Als2 ([4]; 70 g ai/ha): 0%; Soybean response (percent phytotoxicity), Als1 + Als2 [4, 7]: 0%; Avg response (% phytotoxicity), Trait Als1 + Als2 ([4]; 140 g ai/ha): 0%; Soybean response (percent phytotoxicity), Als1 + Als2 [4, 8]: 5%; Avg response (% phytotoxicity), Trait Als1 + Als2 ([4]; 280 g ai/ha): 5%; EC10, Als1 + Als2 [4]: >280 g ai/ha
